Drawing on patent US9918983B2, “Suicidal LSD1 inhibitors targeting SOX2-expressing cancer cells” (THE BOARD OF REGENTS OF THE NEVADA SYSTEM OF HIGHER …, priority 2013, dated 2018), this text covers cell growth for one compound.

Common to all, as to test: Cell growth/viability (MTT, microscopy)
What all share (format): cell-based, human

One experiment deals with BT-549 cells. As to conditions: BT549 cells, 50 μM, 30 hours. How it is done: (§1) Lung, breast, ovarian, and other carcinoma cells were either obtained from American Type Culture Collection (ATCC) or from the DTP and DCTD Tumor Repository of National Cancer Institute (the NCI-60 cancer cell line panel), operated by Charles River Laboratory, Inc., as listed in Table 1. They were cultured according to instructions and treated with various concentrations of LSD1 inhibitors for 30-36 hours for mRNA analysis by quantitative real time RT-PCR or for 30-48 hours for protein analysis and the cell viability assays using Western blotting or microscopy and MTT assays as described previously (Wang, J., et al. (2011) Cancer Research 71, 7238-7249).
(§2) Alternatively, cell viability assays were conducted as previously described (Wang, J., et al. (2011) Cancer Research 71, 7238-7249). For the MTT assay, cells were seeded onto 96-well culture plates with a density of 2000-5000 cells/well, and incubated with CBB1003 or CBB1007 at various concentrations from 1 to 100 μM for 30-48 hours, depending cell growth rate. Dimethylsulfoxide (DMSO) was used as a solvent control. MTT was added to a final concentration of 0.5 mg/mL and cells were re-incubated for 4 hours. After removing the medium, 200 μL DMSO was added to dissolve formazan, followed by incubation for 10 minutes, and absorbance was measured at 490 nm by a Bio Red microplate reader. All assays were performed in triplicates for each concentration. The cell viability rate was calculated as the relative percentage of MTT absorption as follows: % cell viability=(mean experimental absorbance/mean control absorbance)×100.

Another experiment concerns A549 cells. As to conditions: 50 μM, 30 hr. How it is done:
as §1
as §2, with “absorbance)×100. […]” for “absorbance)×100.”
(§3) Referring to FIG. 5C, the percent viability of cells treated with LSD1 inhibitors or siRNAs compared with control cells, as determined by 3-(4,5-dimethylthiazol-2-yl)-2,5-diphenyltetrazolium bromide (MTT) assay is shown. […] The statistical differences between inhibitor-treated and control groups were analyzed by one-way ANOVA (scale bar=[…]; **p<0.01).

A further experiment deals with NCI-H1437 cells. As to conditions: 24-30 hr (50 μM, 30 hr in FIG. 5B). How it is done: as §1
as §2, with “absorbance)×100. […]” for “absorbance)×100.”
as §3

The test system of another experiment is NCI-H520 cells. The following applies: 24-30 hr (50 μM, 30 hr in FIG. 5B). How it is done: as §1
as §2, with “absorbance)×100. […]” for “absorbance)×100.”
as §3

On to `COC(=O)c1cc(CN2CCN(C(=N)N)CC2)cc(C(=O)N2CCN(C(=O)c3ccc(C(=N)N)cc3)CC2)c1` [CBB1007], for which the cell growth entry in the experiment with BT-549 cells was “not sensitive”; with A549 cells it was “specifically inhibited the growth”; in the experiment on NCI-H1437 cells, “no detectable effects”; in the experiment with NCI-H520 cells, “selectively and specifically inhibit the growth”.
